Like-named read-outs stand apart in the source and are kept apart here.
Columns and labels:
[1] = test system: cervical carcinoma cell lines; test: Cell based assay, cell viability (CellTiter-Glo), cervical carcinoma cell lines; conditions: Homo sapiens; HeLa cells
Experimental: (§1) Commercially available bladder cancer, prostate cancer, lung cancer, breast cancer, blood cancer, pancreatic cancer, colorectal cancer, brain cancer, neuroblastoma, melanoma, liver cancer, cervical carcinoma, ovarian cancer, renal cancer, and papilloma cell lines were each treated with trypsin-EDTA and cultured, followed by being seeded in each well of a 96 well plate. […] The treated cells were additionally cultured for 72 hours, and cell viability was measured by using an ATP detection method (CellTiter-Glo® Luminescent Cell Viability Assay, Promega).

[2] = test system: RT4: human urinary bladder transitional cell papilloma; test: Cell based assay, cytotoxicity in RT4 papilloma cells (selectivity); conditions: Homo sapiens, RT-4; RT4 cells
Experimental: as §1

brain cancer cell lines = test: Cell based assay, cell viability (CellTiter-Glo), brain cancer cell lines; conditions: Homo sapiens
Experimental: as §1

[3] = test system: prostate cancer cell lines (e.g. DU145/TXR); test: Cell based assay, cell viability (CellTiter-Glo), prostate cancer cell lines; conditions: Homo sapiens, 72 hours treatment, final concentration 0 to 2 μM
Experimental: (§2) Commercially available bladder cancer, prostate cancer, lung cancer, breast cancer, blood cancer, pancreatic cancer, colorectal cancer, brain cancer, neuroblastoma, melanoma, liver cancer, cervical carcinoma, ovarian cancer, renal cancer, and papilloma cell lines were each treated with trypsin-EDTA and cultured, followed by being seeded in each well of a 96 well plate. After 24 hours of treatment at constant temperature, the respective cells were treated with the candidate compound so that a final concentration became 0 to 2 μM. The treated cells were additionally cultured for 72 hours, and cell viability was measured by using an ATP detection method (CellTiter-Glo® Luminescent Cell Viability Assay, Promega).

liver cancer cell lines = test: Cell based assay, cell viability (CellTiter-Glo), liver cancer cell lines; conditions: Homo sapiens, SK-HEP1; SK-HEP-1 cell line
Experimental: as §2

[4] = U138-MG, U-138 MG cell line, read-out: IC50, Brain cancer cell line U-138 MG
[5] = T98G cell line, read-out: IC50, Brain cancer cell line T98G
[6] = U-251 MG cell line, read-out: IC50, Brain cancer cell line U-251 MG
[7] = CWR22 cells, read-out: IC50, prostate cancer cell line CWR22
[8] = DU-145, DU145/TXR cells, read-out: IC50, prostate cancer cell line DU145/TXR
[9] = DU-145, DU145 cells, read-out: IC50, prostate cancer cell line DU145
[10] = LNcap cells, read-out: IC50, prostate cancer cell line LNcap
[11] = PC-3 cells, read-out: IC50, prostate cancer cell line PC-3

Row | SMILES | IC50 [1] [µM] | IC50 (brain cancer cell lines; [4]) [µM] | IC50 (brain cancer cell lines; [5]) [µM] | IC50 (brain cancer cell lines; [6]) [µM] | IC50 [3, 7] [µM] | IC50 [3, 8] [µM] | IC50 [3, 9] [µM] | IC50 [3, 10] [µM] | IC50 (liver cancer cell lines) [µM] | IC50 [3, 11] [µM] | IC50 [2] [µM]
1 | CC(=O)c1c([S+]([O-])Cc2cc(C)on2)[nH]c2c(F)ccc(F)c2c1=O (stereo not drawn) [Compound 82, 3-acetyl-5,8-difluoro-2-(((5-methylisoxazol-3-yl)methyl)sulfinyl)quinolin-4(1H)-one] | > 10 | > 2 | > 10 | > 2 | > 2 | > 2 | > 2 | > 2 | > 2 | – | > 10
2 | COC(=O)c1ccc(C[S+]([O-])c2[nH]c3c(Cl)ccc(Cl)c3c(=O)c2C(C)=O)cc1 (stereo not drawn) [Compound 91, methyl 4-(((3-acetyl-5,8-dichloro-4-oxo-1,4-dihydroquinolin-2-yl)sulfinyl)methyl)benzoate] | > 10 | > 2 | > 10 | > 2 | > 2 | 1.98 | > 2 | > 2 | 1.72 | – | > 10
3 | CC(=O)c1c(S(=O)(=O)Cc2ccccc2)nc2c(Br)ccc(Cl)c2c1O [Compound 54, 1-(2-(benzylsulfonyl)-8-bromo-5-chloro-4-hydroxyquinolin-3-yl)ethan-1-one] | > 10 | > 10 | > 10 | > 2 | > 2 | > 2 | > 2 | > 2 | > 2 | > 2 | > 10
4 | Cc1cc(C[S+]([O-])c2[nH]c3c(Cl)ccc(Cl)c3c(=O)c2C(=O)c2ccccc2)no1 (stereo not drawn) [Compound 88, 3-benzoyl-5,8-dichloro-2-(((5-methylisoxazol-3-yl)methyl)sulfinyl)quinolin-4(1H)-one] | > 10 | > 10 | > 10 | > 2 | > 2 | > 2 | > 2 | > 2 | > 2 | – | > 10
5 | CC(=O)c1c([S+](C)[O-])n(S(=O)(=O)C(F)(F)F)c2c(Br)ccc(Cl)c2c1=O (stereo not drawn) [Compound 36, 3-acetyl-8-bromo-5-chloro-2-(methylsulfinyl)-1-((trifluoromethyl)sulfonyl)quinolin-4(1H)-one] | > 10 | > 2 | > 10 | > 2 | > 2 | > 2 | > 2 | > 2 | > 2 | > 2 | > 10
6 | CC(=O)c1c(SCc2ccccc2)n(C(=O)c2ccc(Br)cc2)c2c(Br)ccc(Cl)c2c1=O [Compound 23, 3-acetyl-2-(benzylthio)-8-bromo-1-(4-bromobenzoyl)-5-chloroquinolin-4(1H)-one] | > 10 | > 10 | > 10 | > 2 | > 2 | > 2 | > 2 | > 2 | > 2 | > 2 | > 10
7 | CSc1c(C(C)=O)c(=O)c2c(Cl)ccc(Br)c2n1S(=O)(=O)c1ccc(Cl)cc1 [Compound 37, 3-acetyl-8-bromo-5-chloro-1-((4-chlorophenyl)sulfonyl)-2-(methylthio)quinolin-4(1H)-one] | > 10 | > 10 | > 10 | > 2 | > 2 | > 2 | > 2 | > 2 | > 2 | > 2 | > 10
8 | CC(=O)c1c([S+]([O-])Cc2cccc(S(F)(F)(F)(F)F)c2)[nH]c2c(Br)ccc(Cl)c2c1=O (stereo not drawn) [Compound 77, 3-acetyl-8-bromo-5-chloro-2-((3-(pentafluoro--sulfanyl)benzyl)sulfinyl)quinolin-4(1H)-one] | > 10 | 1.55 | > 2 | 1.29 | > 2 | 0.93 | 0.93 | > 2 | 1.09 | 1.48 | > 10
9 | COc1cccc2[nH]c([S+]([O-])Cc3cc(C)on3)c(C(C)=O)c(=O)c12 (stereo not drawn) [Compound 94, 3-acetyl-5-methoxy-2-(((5-methylisoxazol-3-yl)methyl)sulfinyl)quinolin-4(1H)-one] | > 10 | > 2 | > 10 | > 2 | > 2 | > 2 | > 2 | > 2 | > 2 | – | > 10
10 | CSc1c(C(C)=O)c(=O)c2cc(F)ccc2n1C [Compound 7, 3-acetyl-6-fluoro-1-methyl-2-(methylthio)quinolin-4(1H)-one] | > 10 | > 10 | > 10 | > 2 | > 2 | > 2 | > 2 | > 2 | > 2 | > 2 | > 10
11 | CC(=O)c1c([S+](C)[O-])n(Cc2ccc(F)c(Cl)c2)c2c(Br)ccc(Cl)c2c1=O (stereo not drawn) [Compound 22, 3-acetyl-8-bromo-5-chloro-1-(3-chloro-4-fluorobenzyl)-2-(methylsulfinyl)quinolin-4(1H)-one] | > 10 | > 10 | > 10 | > 2 | > 2 | > 2 | > 2 | > 2 | > 2 | > 2 | > 10
12 | CC(=O)c1c(SCc2ccccc2)nc2c(Br)ccc(Cl)c2c1O [Compound 52, 1-(2-(benzylthio)-8-bromo-5-chloro-4-hydroxyquinolin-3-yl)ethan-1-one] | > 10 | > 10 | > 10 | > 2 | > 2 | > 2 | > 2 | > 2 | > 2 | > 2 | > 10
13 | Cc1cc(C[S+]([O-])c2[nH]c3c(Br)ccc(Cl)c3c(=O)c2C(=O)C2CC2)no1 (stereo not drawn) [Compound 96, 8-bromo-5-chloro-3-(cyclopropanecarbonyl)-2-(((5-methylisoxazol-3-yl)methyl)sulfinyl)quinolin-4(1H)-one] | > 2 | > 2 | > 10 | 1.31 | 1.9 | 1.77 | 1.74 | > 2 | 1.96 | > 2 | > 10

Further lines, with some results ahead:

Row | IC50 [1] [µM] | IC50 (brain cancer cell lines; [4]) [µM] | IC50 (brain cancer cell lines; [5]) [µM] | IC50 (brain cancer cell lines; [6]) [µM] | IC50 [3, 7] [µM] | IC50 [3, 8] [µM] | IC50 [3, 9] [µM] | IC50 [3, 10] [µM] | IC50 (liver cancer cell lines) [µM] | IC50 [3, 11] [µM] | SMILES | IC50 [2] [µM]
14 | > 2 | 1.24 | > 10 | > 2 | 1.49 | 1.12 | 1.65 | > 2 | > 2 | 1.83 | CC(=O)c1c([S+]([O-])Cc2ccc(C(F)(F)F)nc2C)[nH]c2c(Br)ccc(Cl)c2c1=O (stereo not drawn) [Compound 102, 3-acetyl-8-bromo-5-chloro-2-(((2-methyl-6-(trifluoromethyl)pyridin-3-yl)methyl)sulfinyl)quinolin-4(1H)-one] | > 10
15 | > 10 | > 10 | > 10 | > 2 | > 2 | > 2 | > 2 | > 2 | > 2 | > 2 | CC(=O)c1c(SC(C)C)[nH]c2c(Br)ccc(Cl)c2c1=O [Compound 24, 3-acetyl-8-bromo-5-chloro-2-(isopropylthio)quinolin-4(1H)-one] | > 10
16 | > 10 | > 10 | > 10 | > 2 | > 2 | > 2 | > 2 | > 2 | > 2 | > 2 | CCS(=O)(=O)n1c([S+](C)[O-])c(C(C)=O)c(=O)c2c(Cl)ccc(Br)c21 (stereo not drawn) [Compound 39, 3-acetyl-8-bromo-5-chloro-1-(ethylsulfonyl)-2-(methylsulfinyl)quinolin-4(1H)-one] | > 10
17 | > 10 | 1.26 | > 10 | 0.88 | 1.07 | 1.01 | 1.28 | 1.34 | 0.76 | 1.16 | CC(=O)c1c([S+]([O-])Cc2cccc(C#N)c2)[nH]c2c(Br)ccc(Cl)c2c1=O (stereo not drawn) [Compound 28, 3-(((3-acetyl-8-bromo-5-chloro-4-oxo-1,4-dihydroquinolin-2-yl)sulfinyl)methyl)benzonitrile] | > 10
18 | > 10 | > 10 | > 10 | > 2 | > 2 | > 2 | > 2 | > 2 | > 2 | > 2 | CC(=O)c1c(SCc2cccc(I)c2)[nH]c2c(Br)ccc(Cl)c2c1=O [Compound 47, 3-acetyl-8-bromo-5-chloro-2-((3-iodobenzyl)thio)quinolin-4(1H)-one] | > 10
19 | > 2 | > 10 | > 10 | > 2 | > 2 | > 2 | > 2 | > 2 | > 2 | – | CC(=O)c1c([S+]([O-])Cc2cnc3[nH]ccc3c2)[nH]c2c(Br)ccc(Cl)c2c1=O (stereo not drawn) [Compound 107, 2-(((1H-pyrrolo[2,3-b]pyridin-5-yl)methyl)sulfinyl)-3-acetyl-8-bromo-5-chloroquinolin-4(1H)-one] | > 10
20 | > 10 | > 10 | > 10 | > 2 | > 2 | > 2 | > 2 | > 2 | > 2 | > 2 | CC(=O)c1c(S/C=C\C(=O)O)[nH]c2c(Br)ccc(Cl)c2c1=O [Compound 67, (Z)-3-((3-acetyl-8-bromo-5-chloro-4-oxo-1,4-dihydroquinolin-2-yl)thio)acrylic acid] | > 10
21 | > 10 | > 2 | > 10 | > 2 | > 2 | 1.88 | > 2 | > 2 | > 2 | – | COc1ccccc1[S+]([O-])c1[nH]c2c(Br)ccc(Cl)c2c(=O)c1C(C)=O (stereo not drawn) [Compound 15, 3-acetyl-8-bromo-5-chloro-2-((2-methoxyphenyl)sulfinyl)quinolin-4(1H)-one] | > 10
